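In this assay, cells in 96-well plates receive the compound at five concentrations for 48 hours. Endpoints are linearly interpolated between the surrounding concentrations. GI50: concentration for 50% inhibition of growth. The concentration for full growth arrest is given as TGI.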 Where only a bound is given, the exact number is not on record here.

Some test systems named below: SNB-75 CNS; NCI-H23 lung; SF-268 CNS; SK-OV-3 ovarian; OVCAR-8 ovarian; SK-MEL-5 melanoma; UACC-62 melanoma; CAKI-1 renal; NCI/ADR-RES ovarian; TK-10 renal.
Experiment in all cases: NCI-60 cell line screen, 48 h

For the compound `CCOC(=O)C#Cc1c(C(=O)OCC)nnn1[C@@H]1O[C@H](COC)[C@@H](OC)[C@H]1OC`, the GI50 is 11.9 µM with SNB-75 CNS; 12.3 µM with NCI-H23 lung; 16.3 µM in the test with SF-268 CNS; 67.5 µM with SK-OV-3 ovarian; 6.94 µM in the test with OVCAR-8 ovarian; 14.3 µM in the test on SK-MEL-5 melanoma. For the same compound, the GI50 is 2.19 µM in the test with UACC-62 melanoma, 1.74 µM in the test on CAKI-1 renal, 15.9 µM with NCI/ADR-RES ovarian and 1.86 µM with TK-10 renal. The TGI was 24.2 µM in the test with SNB-75 CNS; 26.3 µM in the test on NCI-H23 lung; 35.6 µM in the test with SF-268 CNS; more than 100 µM in the test on SK-OV-3 ovarian; 21.7 µM in the test on OVCAR-8 ovarian; 27.4 µM with SK-MEL-5 melanoma. Moreover, the TGI was found to be 5.41 µM in the test on UACC-62 melanoma, 3.14 µM in the test on CAKI-1 renal, 37.3 µM in the test on NCI/ADR-RES ovarian and 3.45 µM with TK-10 renal.

For `O=S(=O)(Nc1ccccc1)c1ccc(C2CC3(Cl)C(Cl)=C(Cl)C2(Cl)C3(Cl)Cl)cc1` (stereo not given), the GI50 was 2.61 µM in the test with SNB-75 CNS; 2.8 µM with NCI-H23 lung; 3.8 µM with SF-268 CNS; 3.45 µM in the test with SK-OV-3 ovarian; 3.52 µM with OVCAR-8 ovarian; 1.93 µM in the test on SK-MEL-5 melanoma. The GI50 was 1.66 µM in the test with UACC-62 melanoma, 2.16 µM in the test with CAKI-1 renal, 2.95 µM in the test on NCI/ADR-RES ovarian and 4.4 µM with TK-10 renal. Also, the TGI with SNB-75 CNS worked out at 9.09 µM; with NCI-H23 lung it was 7.35 µM; in the test on SF-268 CNS, 12.8 µM; in the test on SK-OV-3 ovarian, 10.1 µM; with OVCAR-8 ovarian, 10.9 µM; with SK-MEL-5 melanoma it was 3.74 µM. The TGI in the test with UACC-62 melanoma was 3.58 µM; in the test with CAKI-1 renal it was 6.27 µM; in the test on NCI/ADR-RES ovarian it was 7.98 µM; with TK-10 renal, 14.6 µM.

As to `CCCCCCCCCCN=C(N)c1ccc(N2CCN(c3ccc(C(N)=NCCCCCCCCCC)cc3)CC2)cc1`, the GI50 is 2.34 µM in the test with SNB-75 CNS; 3.23 µM in the test on NCI-H23 lung; 2.27 µM with SF-268 CNS; 4.08 µM in the test on SK-OV-3 ovarian; 2.62 µM with OVCAR-8 ovarian; 2.19 µM in the test on SK-MEL-5 melanoma. The GI50 is 6.67 µM in the test on UACC-62 melanoma, 17.9 µM in the test on CAKI-1 renal, more than 50 µM in the test with NCI/ADR-RES ovarian and 8.29 µM in the test on TK-10 renal. The TGI with SNB-75 CNS was more than 50 µM; in the test on NCI-H23 lung it was more than 50 µM; with SF-268 CNS it was 11.1 µM; in the test with SK-OV-3 ovarian, more than 50 µM; in the test with OVCAR-8 ovarian, more than 50 µM; with SK-MEL-5 melanoma it was more than 50 µM. In addition, the TGI in the test on UACC-62 melanoma was 38.1 µM; in the test on CAKI-1 renal it was more than 50 µM; in the test with NCI/ADR-RES ovarian, more than 50 µM; in the test with TK-10 renal it was more than 50 µM.
